From patent publication US6737076B2, “Hypoallergenic composition containing tolerogenic peptides” (Nestec S.A., priority 1999, dated 2004)

Legend:
Spleen cell = assay: Splenocyte specific proliferation assay with β-LG ((3H)Tdr incorporation) from fed mice; format: in vivo; settings: 20 mcg/g of body weight; for cellular tolerance (specific inhibition of lymphocyte proliferation), in words: oral administration of synthetic peptides; for Stimulation index (rate): synthetic peptides
Excerpt: FIG. 1 represents specific oral tolerance induction in mice fed once with either TTH β-LG, F2 or F(7+9). A: Humoral (dark bars) and mucosal (gray bars) anti-β-LG IgE response. B: β-LG-specific DTH response (●) are individual foot pad increments and (−) are means from 10 mice per group. C and D: Specific (β-LG) and non specific (PHA) proliferative responses of splenic cells. Splenic lymphocytes from mice fed with either saline (♦), TTH β-LG (▪), F2 (▴), or F (7+9) (●) were isolated and subsequently stimulated with decreasing concentrations of antigens. ^3H thymidine incorporation was measured after 120 hours of culture. (^3H)Tdr incorporation results were expressed in cpm, as a mean of triplicate cultures, the blank-subtracted mean was then plotted respectively against β-LG or PHA concentration.
24 hours after DTH immunization, individual increases in foot pad thickness of those injected the day before were measured. Differences between these two measurements were expressed in <thickness (millimeters) and used in group comparisons. Then, from all mice, blood samples were obtained, spleens were taken and pooled according to group of treatment. Splenocyte specific proliferation assays were performed for each group. Intestinal contents were individually collected. Serum and intestinal samples were rapidly frozen at −80° C., until assays. Specific IgE against β-LG and against OVA were determined both in seric and intestinal samples.
(§1) Spleen cell solutions were homogenized and purified. Cells were cocultured in the presence of β-LG or of phytohaemagglutinin A. (^3H)Tdr (Amersham, Zurich) was added in the final 6 hours of culture and the plates were harvested and analyzed by scintillation counting. Stimulation indices were calculated as the ratio of blank-subtracted test and control values expressed as the mean cpm (^3H)Tdr incorporation by triplicate cultures.
(§2) The tolerogenic peptides T6 and T17 contained in tolerogenic fraction F2 were synthetically prepared. T13 contained in a non tolerogenic fraction was also synthesized as a negative control. Oral tolerance induction of these peptides were tested in […] mice as described in example 1c) except that the dose is of 20 mcg/g of body weight.

β-LG epitopes = assay: ELISA inhibition, β-LG IgG binding capacity (residual β-LG epitopes, antigenicity)
Experimental: An ELISA inhibition was used to determine β-LG epitopes in β-LG hydrolysate and in β-LG fractions. β-lactoglobulin titers were calculated from a 5-fold dilution β-LG standard curve run on each plate.

Balb/c mice = assay: Oral tolerance induction mouse model, overall tolerogenic properties; format: in vivo; settings: oral administration of synthetic peptides, 20 mcg/g of body weight
Experimental: (§3) Female Balb/c mice were obtained from IFFA-Crédo (L'Abresle, France). They were all bred and raised on a milk free diet. The mice were 3 weeks old at the start of the experiments.
(§4) Gavages were orally administered to the mice at age 22 days, by gastric feeding of native β-LG (5 mg/g of body weight), various amounts of TTH β-LG, or various amounts of the different β-LG peptidic fractions. Control mice were fed saline water. 5 days later, all mice were immunized β-LG and OVA (Ovalbumin, grade V, Sigma), as a non-related antigen for testing the specificity of the immune response, 21 days after systemic challenge, a Delayed Type Hypersensitivity (DTH) evaluation was done by duplicate thickness measures of the left, rear footpad prior to, and following, immunization with β-LG.
(§5) 24 hours after DTH immunization, individual increases in foot pad thickness of those injected the day before were measured. […] Specific IgE against β-LG and against OVA were determined both in seric and intestinal samples.
Qualitative responses of the tolerogenic properties generated from feeding the different fraction groups at two different concentrations (0.5 or 0.125 mg/g of body weight) were evaluated. Induction or absence of induction of tolerogenic responses to β-LG has been determined by the statistical significance of the immune response. […]

anti-β-LG IgE = assay: Seric anti-β-LG IgE by ELISA after oral tolerance induction and immunization; format: in vivo, mice; settings: synthetic peptides, 20 mcg/g of body weight; control 3.39
Experimental: as §3, §4, §5
Serum and intestinal fluid dilutions were assayed in duplicate for anti-β-LG and anti-OVA IgE antibodies by ELISA. […] Titers were determined by calculating the dilution of the sample that gave twice the absorbance of the negative control. Titers were expressed as the log10 of the reciprocal of the dilution. […]

GLM = assay: Lymphocyte proliferation stimulation index (GLM) after oral peptide feeding; format: in vivo, mice; settings: synthetic peptides, 20 mcg/g of body weight
Experimental: as §1, §2

Substance | cellular tolerance (specific inhibition of lymphocyte proliferation), in words (Spleen cell) | Stimulation index (rate) (Spleen cell) | antigenicity (in words) (β-LG epitopes) | tolerance induction / tolerogenic potential (in words) (Balb/c mice) | tolerized anti-LG IgE/ control (tolerized value) (anti-β-LG IgE) | Stimulation index (GLM) (GLM)
H2N-I-D-A-L-N-E-N-K-COOH (H-IDALNENK-OH) [T6] | induces a cellular tolerance | 0.53 | very low antigenicity | high tolerogenic potential | 3.24/3.39 | 0.285
H2N-V-L-V-L-D-T-D-Y-K,-K-COOH [T17] | induces a cellular tolerance | 0.305 | very low antigenicity | high tolerogenic potential | 2.67/3.39 | 0.405
